Reference: patent US20240270750A1, “IMIDAZOLE-CONTAINING INHIBITORS OF ALK2 KINASE” (BioCryst Pharmaceuticals, Inc., priority 2021, published 2024)

Target: T1, ALK2 (Homo sapiens, UniProt Q04771)
T1 construct: purchased ThermoFisher Scientific (Life Technologies)
T1 sequence (Q04771 21-509): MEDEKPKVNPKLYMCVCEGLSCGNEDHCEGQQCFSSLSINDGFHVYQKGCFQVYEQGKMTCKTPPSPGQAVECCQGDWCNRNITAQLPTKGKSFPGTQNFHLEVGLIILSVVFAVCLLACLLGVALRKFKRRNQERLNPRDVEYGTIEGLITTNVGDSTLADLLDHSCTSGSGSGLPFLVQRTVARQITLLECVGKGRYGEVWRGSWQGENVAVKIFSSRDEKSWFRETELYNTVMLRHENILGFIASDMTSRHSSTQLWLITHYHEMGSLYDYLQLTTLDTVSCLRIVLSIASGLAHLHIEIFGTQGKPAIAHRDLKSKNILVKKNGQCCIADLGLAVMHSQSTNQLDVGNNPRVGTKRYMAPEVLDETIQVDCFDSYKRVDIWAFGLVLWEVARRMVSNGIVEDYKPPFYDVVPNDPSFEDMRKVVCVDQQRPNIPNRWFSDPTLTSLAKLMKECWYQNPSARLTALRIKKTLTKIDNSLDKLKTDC
Experiment: LanthaScreen Eu Kinase Binding Assay, ALK2 inhibition
Conditions: 1 micromolar concentration
Protocol: Biochemical assays to measure the inhibitory effects of the compounds were performed by ThermoFisher Scientific (Life Technologies). ALK2 inhibition was tested using LanthaScreen™ Eu Kinase Binding Assay screening protocol.

For `COc1cc(-n2cnc(Nc3nc(C(C)C)nc4scnc34)c2)cc(OC)c1OC` [Compound 93a, 5-isopropyl-N-(1-(3,4,5-trimethoxyphenyl)-1H-imidazol-4-yl)thiazolo[5,4-d]pyrimidin-7-amine], which inhibition at 1 µM is on record?
Its inhibition at 1 µM is over 50%.

How did the inhibition at 1 µM turn out when `CCCC(C)c1nc(Nc2cn(-c3cc(OC)c(OC)c(OC)c3)cn2)c2cnn(C(C)C)c2n1` (stereo not shown) [Compound 29a, 1-isopropyl-6-(pentan-2-yl)-N-(1-(3,4,5-trimethoxyphenyl)-1H-imidazol-4-yl)-1H-pyrazolo[3,4-d]pyrimidin-4-amine] was run?
The inhibition at 1 µM was over 50%.

With `COc1cc(-n2cnc(Nc3nc(C4CC4)nc4c3cnn4CC(C)C)c2)cc(OC)c1OC` [Compound 117e, 6-cyclopropyl-1-isobutyl-N-(1-(3,4,5-trimethoxyphenyl)-1H-imidazol-4-yl)-1H-pyrazolo[3,4-d]pyrimidin-4-amine] as the compound, how does the inhibition at 1 µM read?
Its inhibition at 1 µM is over 50%.

How did the inhibition at 1 µM turn out when `COc1cc(-n2cnc(Nc3nc(C(C)C)nc4c3cnn4C3CC3)c2)cc(OC)c1OC` [Compound 14f, 1-cyclopropyl-6-isopropyl-N-(1-(3,4,5-trimethoxyphenyl)-1H-imidazol-4-yl)-1H-pyrazolo[3,4-d]pyrimidin-4-amine] was run?
Its inhibition at 1 µM is over 50%.

`COc1cc(-n2cnc(Nc3nc(C(C)C)c4ccsc4n3)c2)cc(OC)c1OC` [Compound 91a, 4-isopropyl-N-(1-(3,4,5-trimethoxyphenyl)-1H-imidazol-4-yl)thieno[2,3-d]pyrimidin-2-amine] was tested. Which inhibition at 1 µM did it give?
Its inhibition at 1 µM is over 50%.

With `C=C(C)c1nc(Nc2cn(-c3cc(OC)c(OC)c(OC)c3)cn2)c2sc(C)cc2n1` [Compound 84c, 6-methyl-2-(prop-1-en-2-yl)-N-(1-(3,4,5-trimethoxyphenyl)-1H-imidazol-4-yl)thieno[3,2-d]pyrimidin-4-amine] as the compound, how does the inhibition at 1 µM read?
The inhibition at 1 µM was over 50%.

With `COc1cc(-n2cnc(Nc3nc(CC4CC4)nc4c3cnn4C34CC(C3)C4)c2)cc(OC)c1OC` [Compound 123e, 1-(bicyclo[1.1.1]pentan-1-yl)-6-(cyclopropylmethyl)-N-(1-(3,4,5-trimethoxyphenyl)-1H-imidazol-4-yl)-1H-pyrazolo[3,4-d]pyrimidin-4-amine] as the compound, how does the inhibition at 1 µM read?
Its inhibition at 1 µM is over 50%.

With `COc1cc(-n2cnc(Nc3nc(C4CCN(C)C4)nc4c3cnn4C(C)C)c2)cc(OC)c1OC` (stereo not shown) [Compound 101b, 1-isopropyl-6-(1-methylpyrrolidin-3-yl)-N-(1-(3,4,5-trimethoxyphenyl)-1H-imidazol-4-yl)-1H-pyrazolo[3,4-d]pyrimidin-4-amine] as the compound, how does the inhibition at 1 µM read?
Its inhibition at 1 µM is over 50%.

How did the inhibition at 1 µM turn out when `CNC(=O)CC(C)c1nc(Nc2cn(-c3cc(OC)c(OC)c(OC)c3)cn2)c2cnn(C(C)C)c2n1` (stereo not shown) [Compound 108a, 3-(1-isopropyl-4-((1-(3,4,5-trimethoxyphenyl)-1H-imidazol-4-yl)amino)-1H-pyrazolo[3,4-d]pyrimidin-6-yl)-N-methylbutanamide] was run?
Its inhibition at 1 µM is over 50%.

With `C=C(C)c1nc(Nc2cn(-c3cc(OC)c(OC)c(OC)c3)cn2)c2ccc(OC)cc2n1` [Compound 64c, 7-methoxy-2-(prop-1-en-2-yl)-N-(1-(3,4,5-trimethoxyphenyl)-1H-imidazol-4-yl)quinazolin-4-amine] as the compound, how does the inhibition at 1 µM read?
Its inhibition at 1 µM is over 50%.

For `COc1cc(-n2cnc(Nc3nc(C(C)CC(O)CO)nc4c3cnn4C(C)C)c2)cc(OC)c1OC` (stereo not shown) [Compound 47a, 4-(1-isopropyl-4-((1-(3,4,5-trimethoxyphenyl)-1H-imidazol-4-yl)amino)-1H-pyrazolo[3,4-d]pyrimidin-6-yl)pentane-1,2-diol], which inhibition at 1 µM is on record?
The inhibition at 1 µM was over 50%.

Which inhibition at 1 µM does the source give for `COc1cc(-n2cnc(Nc3nc(C(C)CC(=O)NC4CC4)nc4c3cnn4C(C)C)c2)cc(OC)c1OC` (stereo not shown) [Compound 107a, N-cyclopropyl-3-(1-isopropyl-4-((1-(3,4,5-trimethoxyphenyl)-1H-imidazol-4-yl)amino)-1H-pyrazolo[3,4-d]pyrimidin-6-yl)butanamide] here?
Its inhibition at 1 µM is over 50%.

Which inhibition at 1 µM does the source give for `COc1cc(-n2cnc(Nc3nc(C4CC4)nc4c3cnn4C3CC3)c2)cc(OC)c1OC` [Compound 116d, 1,6-dicyclopropyl-N-(1-(3,4,5-trimethoxyphenyl)-1H-imidazol-4-yl)-1H-pyrazolo[3,4-d]pyrimidin-4-amine] here?
The inhibition at 1 µM was over 50%.

Which inhibition at 1 µM does the source give for `COc1cc(-n2cnc(Nc3nc(C(C)C)nc4c3CCCC4)c2)cc(OC)c1OC` [Compound 89a, 2-isopropyl-N-(1-(3,4,5-trimethoxyphenyl)-1H-imidazol-4-yl)-5,6,7,8-tetrahydroquinazolin-4-amine] here?
The inhibition at 1 µM was over 50%.

For `CCn1ncc2c(Nc3cn(-c4cc(OC)c(OC)c(OC)c4)cn3)nc(C3CC3)nc21` [Compound 113d, 6-cyclopropyl-1-ethyl-N-(1-(3,4,5-trimethoxyphenyl)-1H-imidazol-4-yl)-1H-pyrazolo[3,4-d]pyrimidin-4-amine], which inhibition at 1 µM is on record?
The inhibition at 1 µM was over 50%.

For `COc1cc(-n2cnc(Nc3nc(C(C)(C)C)nc4c3cnn4C(C)C)c2)cc(OC)c1OC` [Compound 32d, 6-(tert-butyl)-1-isopropyl-N-(1-(3,4,5-trimethoxyphenyl)-1H-imidazol-4-yl)-1H-pyrazolo[3,4-d]pyrimidin-4-amine], which inhibition at 1 µM is on record?
The inhibition at 1 µM was over 50%.

With `COc1cc(-n2cnc(Nc3nc(C(C)C)nc4c3cnn4C3CCOC3)c2)cc(OC)c1OC` (stereo not shown) [Compound 21c, 6-isopropyl-1-(tetrahydrofuran-3-yl)-N-(1-(3,4,5-trimethoxyphenyl)-1H-imidazol-4-yl)-1H-pyrazolo[3,4-d]pyrimidin-4-amine] as the compound, how does the inhibition at 1 µM read?
Its inhibition at 1 µM is over 50%.

`COc1cc(-n2cnc(Nc3nc(C(C)C)nc4c3CCNC4)c2)cc(OC)c1OC` [Compound 86a, 2-isopropyl-N-(1-(3,4,5-trimethoxyphenyl)-1H-imidazol-4-yl)-5,6,7,8-tetrahydropyrido[3,4-d]pyrimidin-4-amine] was tested. Which inhibition at 1 µM did it give?
The inhibition at 1 µM was over 50%.

For `COc1cc(-n2cnc(Nc3nc(C4CC4)nc4c3cnn4C)c2)cc(OC)c1OC` [Compound 114e, 6-cyclopropyl-1-methyl-N-(1-(3,4,5-trimethoxyphenyl)-1H-imidazol-4-yl)-1H-pyrazolo[3,4-d]pyrimidin-4-amine], which inhibition at 1 µM is on record?
Its inhibition at 1 µM is over 50%.

How did the inhibition at 1 µM turn out when `COc1cc(-n2cnc(Nc3cc(C4CC4)nc4c(C(C)C)cnn34)c2)cc(OC)c1OC` [Compound 110d, 5-cyclopropyl-3-isopropyl-N-(1-(3,4,5-trimethoxyphenyl)-1H-imidazol-4-yl)pyrazolo[1,5-a]pyrimidin-7-amine] was run?
The inhibition at 1 µM was under 50%.

Which inhibition at 1 µM does the source give for `COc1cc(-n2cnc(Nc3nc(C(C)C)nc4c3cnn4CC(C)C)c2)cc(OC)c1OC` [Compound 20c, 1-isobutyl-6-isopropyl-N-(1-(3,4,5-trimethoxyphenyl)-1H-imidazol-4-yl)-1H-pyrazolo[3,4-d]pyrimidin-4-amine] here?
The inhibition at 1 µM was over 50%.

How did the inhibition at 1 µM turn out when `COc1cc(-n2cnc(Nc3nc(C(C)(C)C)c4cnn(C(C)C)c4n3)c2)cc(OC)c1OC` [Compound 9b, 4-(tert-butyl)-1-isopropyl-N-(1-(3,4,5-trimethoxyphenyl)-1H-imidazol-4-yl)-1H-pyrazolo[3,4-d]pyrimidin-6-amine] was run?
The inhibition at 1 µM was over 50%.

For `COc1cc(-n2cnc(Nc3nc(C(C)C)nc4c3cnn4C(C)C)c2)cc(OC)c1OC` [Compound 4a, 1,6-diisopropyl-N-(1-(3,4,5-trimethoxyphenyl)-1H-imidazol-4-yl)-1H-pyrazolo[3,4-d]pyrimidin-4-amine], which inhibition at 1 µM is on record?
The inhibition at 1 µM was over 50%.

Which inhibition at 1 µM does the source give for `C=C(C)c1nc(Nc2cn(-c3cc(OC)c(OC)c(OC)c3)cn2)c2ncsc2n1` [Compound 63c, 5-(prop-1-en-2-yl)-N-(1-(3,4,5-trimethoxyphenyl)-1H-imidazol-4-yl)thiazolo[5,4-d]pyrimidin-7-amine] here?
The inhibition at 1 µM was over 50%.

`COc1cc(-n2cnc(Nc3nc(CC4CC4)nc4c3cnn4CC(C)C)c2)cc(OC)c1OC` [Compound 126e, 6-(cyclopropylmethyl)-1-isobutyl-N-(1-(3,4,5-trimethoxyphenyl)-1H-imidazol-4-yl)-1H-pyrazolo[3,4-d]pyrimidin-4-amine] was tested. Which inhibition at 1 µM did it give?
Its inhibition at 1 µM is over 50%.

With `COc1cc(-n2cnc(Nc3nc(C(C)C)nc4c3cnn4C(C)(C)C)c2)cc(OC)c1OC` [Compound 2d, 1-(tert-butyl)-6-isopropyl-N-(1-(3,4,5-trimethoxyphenyl)-1H-imidazol-4-yl)-1H-pyrazolo[3,4-d]pyrimidin-4-amine] as the compound, how does the inhibition at 1 µM read?
Its inhibition at 1 µM is over 50%.

`COc1cc(-n2cnc(Nc3nc(C(C)C)nc4ccc(F)cc34)c2)cc(OC)c1OC` [Compound 99a, 6-fluoro-2-isopropyl-N-(1-(3,4,5-trimethoxyphenyl)-1H-imidazol-4-yl)quinazolin-4-amine] was tested. Which inhibition at 1 µM did it give?
Its inhibition at 1 µM is over 50%.

How did the inhibition at 1 µM turn out when `COc1cc(-n2cnc(Nc3nc(C(C)C)c4ccccc4n3)c2)cc(OC)c1OC` [Compound 56a, 4-isopropyl-N-(1-(3,4,5-trimethoxyphenyl)-1H-imidazol-4-yl)quinazolin-2-amine] was run?
The inhibition at 1 µM was over 50%.

Which inhibition at 1 µM does the source give for `COc1cc(-n2cnc(Nc3nc(C4CC4)nc4c3cnn4C34CC(C3)C4)c2)cc(OC)c1OC` [Compound 118f, 1-(bicyclo[1.1.1]pentan-1-yl)-6-cyclopropyl-N-(1-(3,4,5-trimethoxyphenyl)-1H-imidazol-4-yl)-1H-pyrazolo[3,4-d]pyrimidin-4-amine] here?
The inhibition at 1 µM was over 50%.

`C=C(C)c1nc2c(c(Nc3cn(-c4cc(OC)c(OC)c(OC)c4)cn3)n1)CCN(C(=O)OC(C)(C)C)C2` [Compound 76c, tert-butyl 2-(prop-1-en-2-yl)-4-((1-(3,4,5-trimethoxyphenyl)-1H-imidazol-4-yl)amino)-5,6-dihydropyrido[3,4-d]pyrimidine-7 (8H)-carboxylate] was tested. Which inhibition at 1 µM did it give?
Its inhibition at 1 µM is under 50%.

With `COc1cc(-n2cnc(Nc3nc(C(C)C)nc4cc(C)sc34)c2)cc(OC)c1OC` [Compound 85a, 2-isopropyl-6-methyl-N-(1-(3,4,5-trimethoxyphenyl)-1H-imidazol-4-yl)thieno[3,2-d]pyrimidin-4-amine] as the compound, how does the inhibition at 1 µM read?
Its inhibition at 1 µM is over 50%.
